Laboratory results reported in ChEMBL document CHEMBL2074350, “Immunosuppressants FK506 and rapamycin function as reversal agents of the multidrug resistance phenotype” (Blood, 1992).

Molecular target: ATP-dependent translocase ABCB1 (Homo sapiens, UniProt P08183)
Assay: TP_TRANSPORTER: increase in Daunomycin intracellular accumulation (Daunomycin: 10 uM, Rapamycin: 5 uM) in CEM/VBL 250 cells
Format: functional, cell-based
Details: cem/vbl 250, 5 µM

Chain of ATP-dependent translocase ABCB1 (P08183 whole entry): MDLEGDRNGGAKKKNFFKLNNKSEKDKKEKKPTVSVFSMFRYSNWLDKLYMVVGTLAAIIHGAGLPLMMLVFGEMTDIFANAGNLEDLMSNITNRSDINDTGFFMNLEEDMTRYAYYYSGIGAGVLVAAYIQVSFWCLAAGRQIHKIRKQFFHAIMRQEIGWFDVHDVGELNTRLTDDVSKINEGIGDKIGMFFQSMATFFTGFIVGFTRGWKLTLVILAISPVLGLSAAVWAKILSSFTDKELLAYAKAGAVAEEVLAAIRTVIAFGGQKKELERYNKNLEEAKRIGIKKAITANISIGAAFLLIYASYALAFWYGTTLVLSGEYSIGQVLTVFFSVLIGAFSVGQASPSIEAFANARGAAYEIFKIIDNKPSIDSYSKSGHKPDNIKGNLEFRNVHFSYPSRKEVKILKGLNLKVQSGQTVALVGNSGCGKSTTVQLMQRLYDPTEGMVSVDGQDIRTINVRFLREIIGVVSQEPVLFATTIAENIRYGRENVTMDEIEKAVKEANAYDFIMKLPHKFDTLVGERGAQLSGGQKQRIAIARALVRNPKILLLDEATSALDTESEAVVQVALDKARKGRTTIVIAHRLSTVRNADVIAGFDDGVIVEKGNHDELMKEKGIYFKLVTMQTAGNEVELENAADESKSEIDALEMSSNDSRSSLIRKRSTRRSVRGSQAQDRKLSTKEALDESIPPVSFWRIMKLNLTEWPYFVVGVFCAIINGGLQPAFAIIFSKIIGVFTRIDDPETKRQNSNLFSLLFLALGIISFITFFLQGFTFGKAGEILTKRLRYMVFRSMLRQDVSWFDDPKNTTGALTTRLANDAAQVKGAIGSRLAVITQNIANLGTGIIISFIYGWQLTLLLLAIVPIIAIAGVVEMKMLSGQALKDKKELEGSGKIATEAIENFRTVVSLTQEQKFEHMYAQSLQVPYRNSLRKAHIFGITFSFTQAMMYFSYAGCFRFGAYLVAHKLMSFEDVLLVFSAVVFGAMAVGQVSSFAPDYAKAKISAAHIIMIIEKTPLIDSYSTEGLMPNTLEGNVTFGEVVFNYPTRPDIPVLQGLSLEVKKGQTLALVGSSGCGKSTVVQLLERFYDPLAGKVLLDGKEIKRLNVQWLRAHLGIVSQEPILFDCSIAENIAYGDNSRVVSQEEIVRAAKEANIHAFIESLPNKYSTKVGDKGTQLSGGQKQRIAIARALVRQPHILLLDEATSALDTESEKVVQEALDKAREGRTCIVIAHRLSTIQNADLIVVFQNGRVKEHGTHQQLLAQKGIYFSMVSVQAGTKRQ

Activity: inhibitor [(at a rough estimate) 7-fold]
Compound: CO[C@H]1C[C@@H]2CC[C@@H](C)[C@@](O)(O2)C(=O)C(=O)N2CCCC[C@H]2C(=O)O[C@H]([C@H](C)C[C@@H]2CC[C@@H](O)[C@H](OC)C2)CC(=O)[C@H](C)/C=C(\C)[C@@H](O)[C@@H](OC)C(=O)[C@H](C)C[C@H](C)/C=C/C=C/C=C/1C [SIROLIMUS]
